Patent US6737383B1, “Herbicidal oxadiazolidines” (priority 1999, dated 2004)

Experiments:
rape = experiment: Test B pre/postemergence rape; assay type: in vivo, Brassica napus; settings: for Rape plant response rating: scale of 0 to 10 where 0 is no effect and 10 is complete control
Procedure, shortened: (§1)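 Herbicidal effect was estimated by eye on a ten-point control scale after plants spent twelve to sixteen days in a greenhouse following soil or foliar treatment. Foliar sprays targeted plants at one to four leaves; all doses were formulated in a non-phytotoxic solvent with surfactant.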

sugar beet = experiment: Test B pre/postemergence sugar beet; assay type: in vivo, Beta vulgaris; settings: for Sugarbeets plant response rating: scale of 0 to 10 where 0 is no effect and 10 is complete control
Procedure, shortened: as §1

pigweed = experiment: Test B pre/postemergence pigweed; assay type: in vivo, Amaranthus retroflexus; settings: for Redroot pigweed plant response rating: scale of 0 to 10 where 0 is no effect and 10 is complete control
Procedure, shortened: as §1

soybean = experiment: Test B pre/postemergence soybean; assay type: in vivo, Glycine max; settings: for Soybean plant response rating: scale of 0 to 10 where 0 is no effect and 10 is complete control
Procedure, shortened: as §1

bamyardgrass = experiment: Test B flood test barnyardgrass; assay type: in vivo, Echinochloa crus-galli
Procedure, shortened: (§2)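 Read-out is a visual response score from 0 (no effect) to 10 (complete control), assigned by comparison with untreated controls. Treatment was applied at the 2-leaf stage, and plants stayed in the greenhouse for twelve to sixteen days before scoring.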

smallflower flatsedge = experiment: Test B flood test smallflower flatsedge; assay type: in vivo, Cyperus difformis
Procedure, shortened: as §2

morningglory = experiment: Test B pre/postemergence morningglory; assay type: in vivo, Ipomoea hederacea; settings: for Morningglory plant response rating: scale of 0 to 10 where 0 is no effect and 10 is complete control
Procedure, shortened: as §1

giant foxtail = experiment: Test B pre/postemergence giant foxtail; assay type: in vivo, Setaria faberii; settings: for Giant foxtail plant response rating: scale of 0 to 10 where 0 is no effect and 10 is complete control
Procedure, shortened: as §1

crabgrass = experiment: Test B pre/postemergence crabgrass; assay type: in vivo, Digitaria sanguinalis; settings: for Crabgrass plant response rating: scale of 0 to 10 where 0 is no effect and 10 is complete control
Procedure, shortened: as §1

surinam grass = experiment: Test B pre/postemergence surinam grass; assay type: in vivo, Brachiaria decumbens; settings: for B. signalgrass plant response rating: scale of 0 to 10 where 0 is no effect and 10 is complete control
Procedure, shortened: as §1

wild oat = experiment: Test B pre/postemergence wild oat; assay type: in vivo, Avena fatua; settings: for Wild oats plant response rating: scale of 0 to 10 where 0 is no effect and 10 is complete control
Procedure, shortened: as §1

rice = experiment: Test B flood test rice; assay type: in vivo, Oryza sativa
Procedure, shortened: as §2

cocklebur = experiment: Test B pre/postemergence cocklebur; assay type: in vivo, Xanthium strumarium; settings: for Cocklebur plant response rating: scale of 0 to 10 where 0 is no effect and 10 is complete control
Procedure, shortened: as §1

purple nutsedge = experiment: Test B pre/postemergence purple nutsedge; assay type: in vivo, Cyperus rotundus; settings: for Nutsedge plant response rating: scale of 0 to 10 where 0 is no effect and 10 is complete control
Procedure, shortened: as §1

duck salad = experiment: Test B flood test duck salad; assay type: in vivo, Heteranthera limosa
Procedure, shortened: as §2

corn = experiment: Test B pre/postemergence corn; assay type: in vivo, Zea mays; settings: for Corn plant response rating: scale of 0 to 10 where 0 is no effect and 10 is complete control
Procedure, shortened: as §1

[1] = Postemergence, Rate 125 g/ha, scale 0 to 10, 0 is no effect, 10 is complete control
[2] = Postemergence, Rate 250 g/ha, scale 0 to 10, 0 is no effect, 10 is complete control
[3] = Preemergence, Rate 62 g/ha, scale 0 to 10 (0 no effect, 10 complete control)
[4] = Rate 500 g/ha, Postemergence, scale 0 to 10, 0 no effect, 10 complete control
[5] = Postemergence (flood test), Rate 125 g/ha, scale 0 to 10, 0 is no effect, 10 is complete control
[6] = Rate 62 g/ha, Postemergence (flood test species), scale of 0 to 10 where 0 is no effect and 10 is complete control
[7] = Rate 62 g/ha, flood test species, Pre-emergence, visual evaluation after twelve to sixteen days
[8] = Rate 125 g/ha, Pre-emergence, flood test species, scale 0 to 10 where 0 is no effect and 10 is complete control
[9] = Rate 250 g/ha, Pre-emergence, flood-test species, scale 0 to 10, 0 is no effect, 10 is complete control
[10] = Rate 500 g/ha, listed under Postemergence (flood test species), scale 0 to 10, 0 no effect, 10 complete control
[11] = Rate 500 g/ha, Pre-emergence, flood test species, scale 0 to 10 (0 no effect, 10 complete control)
[12] = flood test species, listed under Postemergence, Rate 250 g/ha, scale 0 to 10, 0 is no effect, 10 is complete control

CC1CC1n1c(=O)on(C(=O)N(c2ccccc2)C(C)C)c1=O (stereo not drawn) [Compound 370]
2: Plant response rating, Rape (rape; [2]) | Plant response rating, Sugarbeets (sugar beet; [3]) | Plant response rating, Soybean (soybean; [1]) | Soybean plant response rating (soybean; Preemergence, Rate 250 g/ha) | Plant response rating, Barnyardgrass (bamyardgrass; [10]) | S. Flatsedge plant response rating (smallflower flatsedge; [6]) | Morningglory plant response rating (morningglory; Preemergence, Rate 250 g/ha) | Plant response rating, B. signalgrass (surinam grass; [1]) | B. signalgrass plant response rating (surinam grass; Preemergence, Rate 250 g/ha) | Wild oats plant response rating (wild oat; Preemergence, Rate 250 g/ha) | Plant response rating, Rice (rice; [10]) | Plant response rating, Rice (rice; [12]) | Plant response rating, Cocklebur (cocklebur; [2]) | Plant response rating, Ducksalad (duck salad; [5]) | Corn plant response rating (0 to 10 scale) (corn; Preemergence, Rate 125 g/ha)
9: Plant response rating, Giant foxtail (giant foxtail; [3]) | Plant response rating, Giant foxtail (giant foxtail; [4]) | Crabgrass plant response rating (crabgrass; Preemergence, Rate 250 g/ha) | Plant response rating, Crabgrass (crabgrass; [4]) | Corn plant response rating (corn; Preemergence, Rate 500 g/ha)
4: Plant response rating, Soybean (soybean; [4]) | Plant response rating, S. Flatsedge (smallflower flatsedge; [12]) | Plant response rating, B. signalgrass (surinam grass; [2]) | Corn plant response rating (corn; Preemergence, Rate 250 g/ha)
5: Sugarbeets plant response rating (sugar beet; Preemergence, Rate 250 g/ha) | Plant response rating, Redroot pigweed (pigweed; [3]) | B. signalgrass plant response rating (surinam grass; Preemergence, Rate 500 g/ha) | Plant response rating, Wild oats (wild oat; [4]) | Nutsedge plant response rating (purple nutsedge; Preemergence, Rate 250 g/ha) | Plant response rating, Nutsedge (purple nutsedge; [4]) | Plant response rating, Corn (corn; [4])
3: Plant response rating, Rape (rape; [4]) | Sugarbeets plant response rating (0 to 10 scale) (sugar beet; Preemergence, Rate 125 g/ha) | Plant response rating, Redroot pigweed (pigweed; [4]) | Plant response rating, Soybean (soybean; [2]) | Plant response rating, S. Flatsedge (smallflower flatsedge; [5]) | Morningglory plant response rating (morningglory; Preemergence, Rate 500 g/ha) | Crabgrass plant response rating (crabgrass; Rate 62 g/ha, Postemergence) | Plant response rating, Wild oats (wild oat; [2]) | Plant response rating, Cocklebur (cocklebur; [4]) | Plant response rating, Ducksalad (duck salad; [10]) | Plant response rating, Ducksalad (duck salad; [12])
6: Rape plant response rating (rape; Preemergence, Rate 250 g/ha) | Giant foxtail plant response rating (giant foxtail; Rate 62 g/ha, Postemergence) | Plant response rating, B. signalgrass (surinam grass; [4])
0: Plant response rating, Rape (rape; [1]) | Plant response rating, Rape (rape; [3]) | Rape plant response rating (0 to 10 scale) (rape; Preemergence, Rate 125 g/ha) | Rape plant response rating (rape; Rate 62 g/ha, Postemergence) | Plant response rating, Sugarbeets (sugar beet; [1]) | Plant response rating, Sugarbeets (sugar beet; [2]) | Sugarbeets plant response rating (sugar beet; Rate 62 g/ha, Postemergence) | Plant response rating, Sugarbeets (sugar beet; [4]) | Plant response rating, Redroot pigweed (pigweed; [1]) | Plant response rating, Redroot pigweed (pigweed; [2]) | Redroot pigweed plant response rating (pigweed; Rate 62 g/ha, Postemergence) | Plant response rating, Soybean (soybean; [3]) | Soybean plant response rating (0 to 10 scale) (soybean; Preemergence, Rate 125 g/ha) | Plant response rating, Barnyardgrass (bamyardgrass; [5]) | Barnyardgrass plant response rating (bamyardgrass; [6]) | Plant response rating, Barnyardgrass (0 to 10 scale, 0 is no effect, 10 is complete control) (bamyardgrass; [7]) | Barnyardgrass plant response rating (bamyardgrass; [8]) | Barnyardgrass plant response rating (bamyardgrass; [9]) | Barnyardgrass plant response rating (bamyardgrass; [11]) | Plant response rating, Barnyardgrass (bamyardgrass; [12]) | Plant response rating, S. Flatsedge (0 to 10 scale, 0 is no effect, 10 is complete control) (smallflower flatsedge; [7]) | S. Flatsedge plant response rating (smallflower flatsedge; [8]) | S. Flatsedge plant response rating (smallflower flatsedge; [9]) | S. Flatsedge plant response rating (smallflower flatsedge; [11]) | Plant response rating, Morningglory (morningglory; [3]) | Morningglory plant response rating (0 to 10 scale) (morningglory; Preemergence, Rate 125 g/ha) | Plant response rating, B. signalgrass (surinam grass; [3]) | B. signalgrass plant response rating (0 to 10 scale, 0 is no effect, 10 is complete control) (surinam grass; Preemergence, Rate 125 g/ha) | B. signalgrass plant response rating (surinam grass; Rate 62 g/ha, Postemergence) | Plant response rating, Wild oats (wild oat; [1]) | Plant response rating, Wild oats (wild oat; [3]) | Wild oats plant response rating (0 to 10 scale) (wild oat; Preemergence, Rate 125 g/ha) | Wild oats plant response rating (wild oat; Rate 62 g/ha, Postemergence) | Plant response rating, Rice (rice; [5]) | Rice plant response rating (rice; [6]) | Plant response rating, Rice (0 to 10 scale, 0 is no effect, 10 is complete control) (rice; [7]) | Rice plant response rating (rice; [8]) | Rice plant response rating (rice; [9]) | Rice plant response rating (rice; [11]) | Plant response rating, Cocklebur (cocklebur; [1]) | Cocklebur plant response rating (0 to 10 scale) (cocklebur; Preemergence, Rate 125 g/ha) | Cocklebur plant response rating (cocklebur; Preemergence, Rate 250 g/ha) | Cocklebur plant response rating (cocklebur; Rate 62 g/ha, Postemergence) | Plant response rating, Nutsedge (purple nutsedge; [1]) | Plant response rating, Nutsedge (purple nutsedge; [2]) | Plant response rating, Nutsedge (purple nutsedge; [3]) | Nutsedge plant response rating (0 to 10 scale) (purple nutsedge; Preemergence, Rate 125 g/ha) | Nutsedge plant response rating (purple nutsedge; Rate 62 g/ha, Postemergence) | Ducksalad plant response rating (duck salad; [6]) | Plant response rating, Ducksalad (0 to 10 scale, 0 is no effect, 10 is complete control) (duck salad; [7]) | Ducksalad plant response rating (duck salad; [8]) | Ducksalad plant response rating (duck salad; [9]) | Ducksalad plant response rating (duck salad; [11]) | Plant response rating, Corn (corn; [1]) | Plant response rating, Corn (corn; [2]) | Plant response rating, Corn (corn; [3]) | Corn plant response rating (corn; Rate 62 g/ha, Postemergence)
10: Rape plant response rating (rape; Preemergence, Rate 500 g/ha) | Redroot pigweed plant response rating (pigweed; Preemergence, Rate 250 g/ha) | Redroot pigweed plant response rating (pigweed; Preemergence, Rate 500 g/ha) | Plant response rating, Morningglory (morningglory; [1]) | Plant response rating, Morningglory (morningglory; [2]) | Morningglory plant response rating (morningglory; Rate 62 g/ha, Postemergence) | Plant response rating, Morningglory (morningglory; [4]) | Giant foxtail plant response rating (0 to 10 scale) (giant foxtail; Preemergence, Rate 125 g/ha) | Giant foxtail plant response rating (giant foxtail; Preemergence, Rate 250 g/ha) | Giant foxtail plant response rating (giant foxtail; Preemergence, Rate 500 g/ha) | Crabgrass plant response rating (crabgrass; Preemergence, Rate 500 g/ha) | Wild oats plant response rating (wild oat; Preemergence, Rate 500 g/ha) | Cocklebur plant response rating (cocklebur; Preemergence, Rate 500 g/ha) | Nutsedge plant response rating (purple nutsedge; Preemergence, Rate 500 g/ha)
7: Redroot pigweed plant response rating (0 to 10 scale) (pigweed; Preemergence, Rate 125 g/ha) | Soybean plant response rating (soybean; Preemergence, Rate 500 g/ha) | Plant response rating, S. Flatsedge (smallflower flatsedge; [10]) | Plant response rating, Crabgrass (crabgrass; [1]) | Plant response rating, Crabgrass (crabgrass; [2]) | Plant response rating, Crabgrass (crabgrass; [3])
8: Plant response rating, Giant foxtail (giant foxtail; [1]) | Plant response rating, Giant foxtail (giant foxtail; [2]) | Crabgrass plant response rating (0 to 10 scale) (crabgrass; Preemergence, Rate 125 g/ha)
1: Soybean plant response rating (soybean; Rate 62 g/ha, Postemergence)
